Patent US7632633B2, “Method for determining the degree of protein oxidation in a skin sample using oxidized protein in stratum corneum as an indicator” (Shiseido Company, Ltd., priority 2004, dated 2009)

How the values were obtained:
[1] = system: stratum corneum of black pig skin; assay: Stratum corneum water holding capacity of black pig skin after oxidation treatment (SKINCON-200); details: 1 hour
Method: Black pig skin was subjected to oxidation treatment for 1 hour with a 10 mM acrolein solution. After rinsing with water for 1 hour, the water was carefully wiped off, and the change in the water content of the stratum corneum over time was measured with the SKINCON-200.
Black pig skin was treated for 1 hour with 20 mM hypochlorous acid. After rinsing with water for 1 hour, the water was carefully wiped off, and the change in the water content of the stratum corneum over time was measured with the SKINCON-200.

[2] = system: stratum corneum of human forearm skin; assay: Stratum corneum water holding capacity of human forearm skin after occlusion treatment (SKINCON-200); type: in vivo; details: occlusion 1 hour, 20 mM hypochlorous acid vs PBS
Method: Human forearm skin was subjected to occlusion treatment for 1 hour with PBS or 20 mM hypochlorous acid. After rinsing with water for 1 hour, the water was carefully wiped off, and the change in the water content of the stratum corneum over time was measured with the SKINCON-200.

[3] = system: stratum corneum of porcine skin; assay: Stratum corneum water holding capacity of dry pig skin after oxidation treatment (SKINCON-200); details: dry pig skin immersed in acrolein 0, 1, 10 and 100 mM for 3 hours; dried at humidity 50%, temperature 250° C., measured 15 minutes later
Method: (§1) Dry pig skin (Alloask, Taiho Pharmaceutical) was immersed in water for 3 days. The pig skin was removed and subjected to oxidation treatment by immersing in an acrolein solution (Tokyo Chemical Industry) at 0, 1, 10 and 100 mM for 3 hours. Acrolein oxidizes by acting on protein resulting in the formation of an aldehyde-protein adduct. Following oxidation treatment, the pig skin was rinsed with water for 1 hour. After rinsing, the pig skin was initially dried (humidity: 50%, temperature: 250° C.) in a Petri dish with the stratum corneum side facing upward followed 15 minutes later by measuring the moisture content of the stratum corneum with the SKINCON-200 (IBS).
The results of measuring the moisture content of the stratum corneum are shown in FIG. 1 as skin conductance values.

[4] = system: stratum corneum of porcine skin; assay: Stratum corneum transparency of dry pig skin after oxidation treatment (observation); details: dry pig skin immersed in acrolein 0, 1, 10 and 100 mM for 3 hours; dried (humidity 50%, 25° C.), observed over 24 hours
Method: as §1, with “was” for “was removed and”, “25°” for “250°”, “followed” for “followed 15 minutes later”, “observation” for “measuring the moisture content”, “dried pig skin over” for “stratum corneum with”, “course of 24 hours.” for “SKINCON-200 (IBS).”

| Structure (SMILES) | change in the water content of the stratum corneum over time (ability to hold water) ([1]; 20 mM hypochlorous acid) | change in the water content of the stratum corneum over time (water holding capacity) [2] | moisture content of the stratum corneum (skin conductance) [3] | change in the water content of the stratum corneum over time (ability to hold water) ([1]; 10 mM acrolein solution) | transparency of the stratum corneum [4] |
| --- | --- | --- | --- | --- | --- |
| OCl [hypochlorous acid] | A decrease was observed in the ability of stratum corneum of the pig skin to hold water | decrease in water holding capacity | – | – | – |
| C=CC=O [acrolein] | – | – | decrease in moisture content was observed that was dependent on the concentration | A decrease was observed in the ability of stratum corneum of the pig skin to hold water | transparency decreased concentration-dependently |
